In patent publication US10602680B2, “Method of internal seed disinfection by combining seed priming with vacuum infiltration” (priority 2014, dated 2020):

Key:
[1] = system: triploid watermelon seeds; assay: Phytotoxicity screening by vacuum infiltration followed by matrix priming
Description: Step 110 involves choosing which species of seed will be sought to be disinfected. […] Thus, in step 130, a phytotoxicty screening is carried out on the chosen seeds using the chosen treatment. […] For example, the inventors screened the antibiotic Oxytetracycline using the method of adding chemicals to the water used in matrix priming (Eastin, J. A., 2000, U.S. Pat. No. 6,076,301) and the method of the present invention. Water containing 500 ppm of Oxytetracycline was used to prime triploid watermelon seeds using matrix priming. Further, the same seed was treated with vacuum infiltration using 500 ppm Oxytetracycline solutions for 6 hours, which was followed by a matrix priming using water. For a control, seed of the same lot was treated using vacuum infiltration with water, followed by matrix priming using water. Also, untreated seeds were preserved as an additional control.

[2] = system: Acidovorax avenae subsp. citrulli; assay: 10 minute soak of externally infected diploid watermelon seeds in antibiotic solutions; format: in vivo
Description: The effectiveness of using an antibiotic solution combined with matrix priming for disinfecting triploid watermelon seeds internally infected with Acidovorax avenae subsp. citrulli has been tested. In order to screen for effective antibiotics, diploid watermelon seeds were obtained which were externally infected with Acidovorax avenae subsp. citrulli. […] Infected seeds were soaked for 10 minutes in antibiotic solutions of 100 ppm, 250 ppm, and 500 ppm of the above antibiotics. Dosage was chosen based on information reported by Layne Wade (21st Annual Tomato Disease Workshop, Asheville, N.C., November 2006) which stated that the MIC (minimum inhibitory concentration) of Kasugamycin on Acidovorax avenae subsp. citrulli is greater than 100 ppm.

[3] = system: Acidovorax avenae subsp. citrulli; settings: on Acidovorax avenae subsp. citrulli; reported by Layne Wade, 2006; cited from earlier work
[4] = system: Acidovorax avenae subsp. citrulli; settings: 1% solution, soak for 15 minutes; cited from earlier work
[5] = system: Xanthomonas campestris pv. Campestris; assay: Osmotic priming with PEG followed by vacuum infiltration of infected broccoli seeds: presence of disease; format: in vivo; settings: osmotic priming for 4 days followed by 6 hours of vacuum infiltration with 500 ppm
Description: Determination of proper length of priming treatment and vacuum filtration treatment are performed on an empirical basis. For an example, the inventors identified proper treatment length in the following manner. A lot of broccoli seeds infected with Xanthomonas campestris pv. Campestris were treated with the following treatment regiments. […] Seeds were tested after treatments for both germination and presence of the disease Xanthomonas campestris pv. Campestris.

[6] = system: Acidovorax avenae subsp. citrulli; assay: 30 minute soak of infected diploid watermelon seeds, screening against the target disease; format: in vivo
Description: Substances with suitable levels of phytotoxicity are then screened for their affectivity against target diseases. For an example, the inventors screened the antibiotic piperacillin/tazobactam, and electrolyzed water for its affectivity against Acidovorax avenae subsp. citrulli on diploid watermelons seeds. […] This serves only as an example, and any method of screening can be used either in vivo or in vitro to screen for affectivity against target diseases and appropriate dose.

[7] = further screening using the same format, concentrations not given

Compound	phytotoxicity ([1]; in vivo)	elimination of bacteria on seeds ([2]; 250 ppm)	elimination of bacteria on seeds ([2]; 500 ppm)	further results
CO/N=C(\C(=O)N[C@@H]1C(=O)N2C(C(=O)O)=C(CSc3nc(=O)c(=O)[nH]n3C)CS[C@H]12)c1csc(N)n1 [Ceftriaxone sodium]	no phytotoxic effects	–	–	elimination of bacteria on seeds ([2]; any dose (100 ppm, 250 ppm, 500 ppm)): not effective
O=C(N[C@H](CO)[C@H](O)c1ccc([N+](=O)[O-])cc1)C(Cl)Cl [Chloramphenicol]	phytotoxic	effective	effective	–
C[C@H]1O[C@H](O[C@H]2[C@H](O)[C@@H](O)[C@@H](O)[C@H](O)[C@@H]2O)[C@@H](N)C[C@@H]1NC(=N)C(=O)O [Kasugamycin]	–	effective	effective	MIC (minimum inhibitory concentration) [3]: greater than 100 ppm
CCn1cc(C(=O)O)c(=O)c2cc3c(cc21)OCO3 [Oxalinic acid]	phytotoxic	effective	effective	–
[Ca+2].[O-]Cl.[O-]Cl [calcium hypochlorite]	–	–	–	elimination from watermelon seeds [4]: not effective
O=P([O-])([O-])[O-].[Na+].[Na+].[Na+] [trisodium phosphate]	–	–	–	phytotoxicity [1, 7]: phytotoxic
Colistin sulphate	–	effective	effective	phytotoxicity [1, 7]: mild phytotoxic effects
Piperacillin/tazobactam	–	effective	effective	eradication of seed borne disease [5]: eradicated; elimination of the bacteria ([6]; 100 ppm): not effective; elimination of the bacteria ([6]; 250 ppm): effective
Trimethoprim-sulfamethoxazole	–	effective	effective	–
